Values joined by “and” are separate entries in the source; they are usually repeats but may differ in a detail not shown here. Equal values may be shown once.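 Step 1: Grow cells in 96-well plates. Step 2: Expose to compound for 48 hours at 5 concentrations. Step 3: Interpolate endpoints linearly; if unreached, use highest concentration. Abbreviation: GI50, concentration required for 50% inhibition of growth. TGI marks complete inhibition of growth.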
Experiments:
Assay in all cases: inhibition of tumour cell growth, NCI panel, 48 h
[1] = test system: SF-268 CNS
[2] = test system: RPMI-8226 leukemia
[3] = test system: UACC-257 melanoma
[4] = test system: OVCAR-4 ovarian
[5] = test system: OVCAR-3 ovarian
[6] = test system: HCC-2998 colon
[7] = test system: SNB-19 CNS
[8] = test system: COLO 205 colon
[9] = test system: NCI-H23 lung
[10] = test system: SF-295 CNS
[11] = test system: MCF7 breast
[12] = test system: A498 renal
[13] = test system: OVCAR-5 ovarian
[14] = test system: IGROV1 ovarian
[15] = test system: HT29 colon
[16] = test system: UACC-62 melanoma
[17] = test system: SR leukemia
[18] = test system: KM12 colon
[19] = test system: DU-145 prostate
[20] = test system: U251 CNS
[21] = test system: NCI-H460 lung
[22] = test system: MALME-3M melanoma
[23] = test system: M14 melanoma
[24] = test system: ACHN renal
[25] = test system: HOP-92 NSCLC
[26] = test system: SK-MEL-28 melanoma
[27] = test system: UO-31 renal
[28] = test system: NCI-H226 lung
[29] = test system: T-47D breast
[30] = test system: K-562 leukemia
[31] = test system: RXF 393 renal
[32] = test system: EKVX NSCLC
[33] = test system: MDA-MB-435
[34] = test system: MDA-MB-231 breast
[35] = test system: TK-10 renal
[36] = test system: A549 NSCLC
[37] = test system: SF-539 CNS
[38] = test system: OVCAR-8 ovarian
[39] = test system: CAKI-1 renal
[40] = test system: SN12C renal
[41] = test system: HS 578T breast
[42] = test system: SK-MEL-2 melanoma
[43] = test system: NCI-H522 lung
[44] = test system: SK-MEL-5 melanoma
[45] = test system: 786-0 renal
[46] = test system: SNB-75 CNS
[47] = test system: PC-3 prostate
[48] = test system: BT-549 breast
[49] = test system: NCI/ADR-RES ovarian
[50] = test system: HOP-62 NSCLC
[51] = test system: SK-OV-3 ovarian
[52] = test system: HCT-116 colon
[53] = test system: LOX IMVI melanoma
[54] = test system: HCT-15 colon
[55] = test system: CCRF-CEM leukemia
[56] = test system: SW-620 colon
[57] = test system: MOLT-4 leukemia

For `c1ccc2c(Nc3ccc(Oc4ccc(Nc5c6ccccc6nc6ccccc56)cc4)cc3)c3ccccc3nc2c1`, the GI50 [1] was 758 nM, the TGI [1] was 2810 nM and 4880 nM and the GI50 [2] was 187 nM. For the same compound, the TGI [2] was 434 nM, the GI50 [3] was 1730 nM and 245 nM and the TGI [3] was 3200 nM and 524 nM. The GI50 [4] was 278 nM, the TGI [4] was 637 nM and 145 nM and the TGI [5] was 366 nM. The TGI [6] was 15.5 nM, the GI50 [7] was 333 nM and the TGI [7] was 1110 nM. For the same compound, the GI50 [8] was 1520 nM, the TGI [8] was 3650 nM and 2450 nM and the TGI [9] was 596 nM. The TGI [10] was 829 nM, the GI50 [11] was 176 nM and the TGI [12] was 3850 nM. For the same compound, the TGI [13] was 1060 nM, the GI50 [14] was 292 nM and 1160 nM and the TGI [14] was 1210 nM and 2640 nM. For the same compound, the GI50 [15] was 237 nM and 212 nM, the TGI [15] was 569 nM and 496 nM and the GI50 [16] was 1540 nM and 182 nM. For the same compound, the TGI [16] was 3020 nM and 360 nM, the GI50 [17] was 126 nM and the TGI [17] was 323 nM. The GI50 [18] was 210 nM and 187 nM, the TGI [18] was 441 nM and 376 nM and the GI50 [19] was 403 nM. The TGI [19] was 1250 nM and 929 nM, the GI50 [20] was 21.2 nM and 145 nM and the TGI [20] was 76.2 nM and 276 nM. The GI50 [21] was 346 nM, the TGI [21] was 1380 nM and 5930 nM and the GI50 [22] was 2080 nM. For the same compound, the TGI [22] was 3020 nM and 3820 nM, the TGI [23] was 1050 nM and the GI50 [24] was 30.9 nM and 133 nM. For the same compound, the TGI [24] was 101 nM and 260 nM, the GI50 [25] was 285 nM and the TGI [25] was 1500 nM and 4690 nM. The GI50 [26] was 1440 nM, the GI50 [27] was 1370 nM and 1190 nM and the TGI [27] was 2660 nM and 2600 nM. The TGI [28] was 3810 nM, the GI50 [29] was 221 nM and the TGI [29] was 510 nM and 2740 nM. For the same compound, the GI50 [30] was 320 nM, the TGI [30] was 1080 nM and the GI50 [31] was 1560 nM. The TGI [31] was 3870 nM and > 27200 nM, the GI50 [32] was 2500 nM and the TGI [32] was 5170 nM and 4630 nM. The TGI [33] was 400 nM, the GI50 [34] was 197 nM and 139 nM and the TGI [34] was 566 nM and 268 nM. For the same compound, the TGI [35] was 970 nM, the GI50 [36] was 265 nM and 227 nM and the TGI [36] was 792 nM and 540 nM. The GI50 [37] was 2100 nM and 1650 nM, the TGI [37] was 3910 nM and 3320 nM and the TGI [38] was 526 nM. For the same compound, the GI50 [39] was 1820 nM, the TGI [39] was 3220 nM and 3010 nM and the GI50 [40] was 213 nM and 375 nM. The TGI [40] was 651 nM and 1690 nM, the TGI [41] was 5040 nM and the GI50 [42] was 3250 nM. The TGI [42] was 3780 nM, the GI50 [43] was 205 nM and the TGI [43] was 1970 nM and 440 nM. The TGI [44] was 3400 nM, the TGI [45] was 30.5 nM and the GI50 [46] was 1590 nM. For the same compound, the TGI [46] was 3980 nM and 1450 nM, the TGI [47] was 366 nM and the GI50 [48] was 2070 nM and 1870 nM. The TGI [48] was 4540 nM and 4400 nM, the TGI [49] was 156 nM and the GI50 [50] was 301 nM and 1740 nM. The TGI [50] was 1090 nM and 3120 nM, the TGI [51] was 4210 nM and the GI50 [52] was 155 nM and 32.5 nM. The TGI [52] was 289 nM and 117 nM, the GI50 [53] was 14.8 nM and the GI50 [54] was 19 nM and 17 nM. The TGI [54] was 35.8 nM and 37.9 nM, the GI50 [55] was 217 nM and the TGI [55] was 719 nM. It also gave a TGI [56] of 552 nM, a GI50 [57] of 186 nM and a TGI [57] of 843 nM.

Reference: PubChem BioAssay (NCI)
